From paper PMC4512978, “Synthesis and evaluation in rats of homologous series of [^18F]-labeled dopamine D2/3 receptor agonists based on the 2-aminomethylchroman scaffold as potential PET tracers” (EJNMMI Research, 2015)

Test system: D2/3R
Test: Kinetic analysis of PET data (1TCM, 2TCM, Logan, SRTM);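 as to 2TCM BPND change relative to control: Raclopride 1 mg/kg intravenous pretreatment versus saline controls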;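 as to SRTM BPND change relative to control: Raclopride 1 mg/kg intravenous pretreatment versus saline controls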
Type: in vivo, Sprague-Dawley rats
Set-up: key to SRTM BPND / 1TCM BPND / 2TCM BPND (VT-based): BPND = VT(target)/VT(cerebellum) − 1 (or SRTM, cerebellum reference); SRTM BPND change relative to control / 1TCM BPND change relative to control / 2TCM BPND change relative to control / Logan BPND change relative to control: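 Raclopride 1 mg/kg intravenous pretreatment versus saline controls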; 1TCM VT / 2TCM VT: unit not given here
Protocol: Kinetic analysis is described using the nomenclature proposed by Innis et al.. ROI TACs of [^18F]FEt-AMC13 were analyzed with one-tissue and two-tissue compartmental models of reversible binding (1TCM and 2TCM, respectively) to obtain individual rate constants. From these, the regional distribution volumes (VT) were calculated and compared to those obtained with Logan graphical analysis. Binding potentials (BPND) were calculated from the distribution ratios as VT (target) / VT (cerebellum) – 1, or estimated with the simplified reference tissue model (SRTM) using the cerebellum as reference region.
Metabolite-corrected plasma-derived arterial input function and whole blood time-activity curve were used for Logan, 1TCM, and 2TCM analyses. Fractional cerebral blood volume was set to 3.6 % [27]. For one rat in the raclopride-treated group, no input curves could be obtained; therefore, its PET data were only analyzed with SRTM.
Degree of D2/3R-specific binding of the tracers was characterized by BPND (as given above) or the specific binding ratio (SBR) given as target region activity/cerebellar activity - 1. Both were calculated under control conditions and in response to the raclopride challenge.

[1] = Pituitary, raclopride, listed as [18F]FEt-AMC13
[2] = Striatum, raclopride, listed as [18F]FEt-AMC13
[3] = Thalamus, raclopride, listed as [18F]FEt-AMC13

Oc1ccc2c(c1)O[C@@H](CNCc1ccc(OCC[18F])cc1)CC2 [[^18F]FEt-AMC13]
SRTM BPND (Pituitary, raclopride): 0.55 ± 0.53 | SRTM BPND change relative to control (Pituitary, raclopride): −22% | 2TCM BPND change relative to control [1]: -23% | SRTM BPND [1]: 0.55±0.53 | SRTM BPND change relative to control [1]: –22% | 1TCM BPND (Striatum, control): 0.63 ± 0.08 | 1TCM VT (Striatum, control): 7.60±0.64 | 2TCM BPND (VT-based) (Striatum, control): 0.56 ± 0.05 | 2TCM VT (Striatum, control): 7.90±0.84 | Logan BPND (Striatum, control): 0.52 ± 0.01 | Logan VT (Striatum, control): 7.72±0.84 | SRTM BPND (Striatum, control): 0.51 ± 0.02 | 1TCM K1 (Striatum, control rat A): 0.45 ± 0.03 mL/g/min | 1TCM k2 (Striatum, control rat A): 0.05 ± 0.01 min⁻¹ | 2TCM K1 (Striatum, control rat A): 1.77 ± 0.62 mL/g/min | 2TCM k2 (Striatum, control rat A): 4.95 ± 3.00 min⁻¹ | 2TCM k3 (Striatum, control rat A): 1.34 ± 0.29 min⁻¹ | 2TCM k4 (Striatum, control rat A): 0.05 ± 0.01 min⁻¹ | 1TCM K1 (Striatum, control rat B): 0.49 ± 0.02 mL/g/min | 1TCM k2 (Striatum, control rat B): 0.06 ± 0.01 min⁻¹ | 2TCM K1 (Striatum, control rat B): 0.63 ± 0.14 mL/g/min | 2TCM k2 (Striatum, control rat B): 0.48 ± 0.68 min⁻¹ | 2TCM k3 (Striatum, control rat B): 0.81 ± 1.13 min⁻¹ | 2TCM k4 (Striatum, control rat B): 0.17 ± 0.07 min⁻¹ | 1TCM K1 (Striatum, control rat C): 0.47 ± 0.02 mL/g/min | 1TCM k2 (Striatum, control rat C): 0.07 ± 0.004 min⁻¹ | 2TCM K1 (Striatum, control rat C): 0.98 ± 0.85 mL/g/min | 2TCM k2 (Striatum, control rat C): 3.47 ± 8.55 min⁻¹ | 2TCM k3 (Striatum, control rat C): 2.81 ± 3.01 min⁻¹ | 2TCM k4 (Striatum, control rat C): 0.11 ± 0.08 min⁻¹ | 1TCM K1 (Striatum, control rat D): 0.51 ± 0.02 mL/g/min | 1TCM k2 (Striatum, control rat D): 0.07 ± 0.01 min⁻¹ | 2TCM K1 (Striatum, control rat D): 8.06 ± 30.34 mL/g/min | 2TCM k2 (Striatum, control rat D): 58.0 ± 203.8 min⁻¹ | 2TCM k3 (Striatum, control rat D): 3.54 ± 188.40 min⁻¹ | 2TCM k4 (Striatum, control rat D): 0.07 ± 263.98 min⁻¹ | 1TCM BPND (Striatum, raclopride): 0.51±0.06 | 1TCM BPND change relative to control (Striatum, raclopride): -18% | 1TCM VT (Striatum, raclopride): 6.69±0.41 | 2TCM BPND (VT-based) (Striatum, raclopride): 0.41 ± 0.05 | 2TCM BPND change relative to control (Striatum, raclopride): −27% | 2TCM VT (Striatum, raclopride): 6.97±0.39 | Logan BPND (Striatum, raclopride): 0.40±0.04 | Logan BPND change relative to control (Striatum, raclopride): -24% | Logan VT (Striatum, raclopride): 6.97±0.32 | SRTM BPND (Striatum, raclopride): 0.38 ± 0.05 | SRTM BPND change relative to control (Striatum, raclopride): −26% | 2TCM BPND (VT-based) [2]: 0.41±0.05 | 2TCM BPND change relative to control [2]: -27% | SRTM BPND [2]: 0.38±0.05 | SRTM BPND change relative to control [2]: –26% | 1TCM BPND (Thalamus, control): 0.38±0.06 | 1TCM VT (Thalamus, control): 6.45±0.62 | 2TCM BPND (VT-based) (Thalamus, control): 0.33 ± 0.02 | 2TCM VT (Thalamus, control): 6.75±0.62 | Logan BPND (Thalamus, control): 0.31±0.02 | Logan VT (Thalamus, control): 6.64±0.61 | SRTM BPND (Thalamus, control): 0.28 ± 0.06 | 1TCM K1 (Thalamus, control rat A): 0.44 ± 0.02 mL/g/min | 1TCM k2 (Thalamus, control rat A): 0.06 ± 0.01 min⁻¹ | 2TCM K1 (Thalamus, control rat A): 14.0 ± 117.5 mL/g/min | 2TCM k2 (Thalamus, control rat A): 104 ± 848 min⁻¹ | 2TCM k3 (Thalamus, control rat A): 3.05 ± 820.48 min⁻¹ | 2TCM k4 (Thalamus, control rat A): 0.05 ± 961.03 min⁻¹ | 1TCM K1 (Thalamus, control rat B): 0.65 ± 0.03 mL/g/min | 1TCM k2 (Thalamus, control rat B): 0.10 ± 0.01 min⁻¹ | 2TCM K1 (Thalamus, control rat B): 0.88 ± 0.12 mL/g/min | 2TCM k2 (Thalamus, control rat B): 0.58 ± 0.58 min⁻¹ | 2TCM k3 (Thalamus, control rat B): 0.67 ± 1.63 min⁻¹ | 2TCM k4 (Thalamus, control rat B): 0.19 ± 1.99 min⁻¹ | 1TCM K1 (Thalamus, control rat C): 0.55 ± 0.02 mL/g/min | 1TCM k2 (Thalamus, control rat C): 0.09 ± 0.01 min⁻¹ | 2TCM K1 (Thalamus, control rat C): 0.71 ± 0.13 mL/g/min | 2TCM k2 (Thalamus, control rat C): 0.48 ± 0.97 min⁻¹ | 2TCM k3 (Thalamus, control rat C): 0.76 ± 3.17 min⁻¹ | 2TCM k4 (Thalamus, control rat C): 0.23 ± 3.61 min⁻¹ | 1TCM K1 (Thalamus, control rat D): 0.64 ± 0.03 mL/g/min | 1TCM k2 (Thalamus, control rat D): 0.11 ± 0.01 min⁻¹ | 2TCM K1 (Thalamus, control rat D): 3.13 ± 3.18 mL/g/min | 2TCM k2 (Thalamus, control rat D): 12.3 ± 18.9 min⁻¹ | 2TCM k3 (Thalamus, control rat D): 2.61 ± 0.96 min⁻¹ | 2TCM k4 (Thalamus, control rat D): 0.11 ± 0.02 min⁻¹ | 1TCM BPND (Thalamus, raclopride): 0.33±0.04 | 1TCM BPND change relative to control (Thalamus, raclopride): -12% | 1TCM VT (Thalamus, raclopride): 5.93±0.71 | 2TCM BPND (VT-based) (Thalamus, raclopride): 0.30 ± 0.01 | 2TCM BPND change relative to control (Thalamus, raclopride): −10% | 2TCM VT (Thalamus, raclopride): 6.44±0.60 | Logan BPND (Thalamus, raclopride): 0.28±0.005 | Logan BPND change relative to control (Thalamus, raclopride): -10% | Logan VT (Thalamus, raclopride): 6.40±0.40 | SRTM BPND (Thalamus, raclopride): 0.26 ± 0.02 | SRTM BPND change relative to control (Thalamus, raclopride): −7% | 2TCM BPND (VT-based) [3]: 0.30±0.01 | 2TCM BPND change relative to control [3]: -10% | SRTM BPND [3]: 0.26±0.02 | SRTM BPND change relative to control [3]: –7% | part of cerebellar VT potentially displaceable (D2/3R specific binding) (modified Lassen plot): 11–26% | part of striatal VT potentially displaceable (D2/3R specific binding) (modified Lassen plot): 41–55% | Striatal BPND relative to cerebellum (range depending on the estimation method): 0.51–0.63
